Each structure is given as a SMILES string. pKi: −log10 of the molar value.

In general, pKi refers to the negative decadic logarithm of the Ki, by convention in mol/L.

mTOR kinase (purified recombinant mTOR(1360-2549)+GBL), sequence (P42345 1360-2549): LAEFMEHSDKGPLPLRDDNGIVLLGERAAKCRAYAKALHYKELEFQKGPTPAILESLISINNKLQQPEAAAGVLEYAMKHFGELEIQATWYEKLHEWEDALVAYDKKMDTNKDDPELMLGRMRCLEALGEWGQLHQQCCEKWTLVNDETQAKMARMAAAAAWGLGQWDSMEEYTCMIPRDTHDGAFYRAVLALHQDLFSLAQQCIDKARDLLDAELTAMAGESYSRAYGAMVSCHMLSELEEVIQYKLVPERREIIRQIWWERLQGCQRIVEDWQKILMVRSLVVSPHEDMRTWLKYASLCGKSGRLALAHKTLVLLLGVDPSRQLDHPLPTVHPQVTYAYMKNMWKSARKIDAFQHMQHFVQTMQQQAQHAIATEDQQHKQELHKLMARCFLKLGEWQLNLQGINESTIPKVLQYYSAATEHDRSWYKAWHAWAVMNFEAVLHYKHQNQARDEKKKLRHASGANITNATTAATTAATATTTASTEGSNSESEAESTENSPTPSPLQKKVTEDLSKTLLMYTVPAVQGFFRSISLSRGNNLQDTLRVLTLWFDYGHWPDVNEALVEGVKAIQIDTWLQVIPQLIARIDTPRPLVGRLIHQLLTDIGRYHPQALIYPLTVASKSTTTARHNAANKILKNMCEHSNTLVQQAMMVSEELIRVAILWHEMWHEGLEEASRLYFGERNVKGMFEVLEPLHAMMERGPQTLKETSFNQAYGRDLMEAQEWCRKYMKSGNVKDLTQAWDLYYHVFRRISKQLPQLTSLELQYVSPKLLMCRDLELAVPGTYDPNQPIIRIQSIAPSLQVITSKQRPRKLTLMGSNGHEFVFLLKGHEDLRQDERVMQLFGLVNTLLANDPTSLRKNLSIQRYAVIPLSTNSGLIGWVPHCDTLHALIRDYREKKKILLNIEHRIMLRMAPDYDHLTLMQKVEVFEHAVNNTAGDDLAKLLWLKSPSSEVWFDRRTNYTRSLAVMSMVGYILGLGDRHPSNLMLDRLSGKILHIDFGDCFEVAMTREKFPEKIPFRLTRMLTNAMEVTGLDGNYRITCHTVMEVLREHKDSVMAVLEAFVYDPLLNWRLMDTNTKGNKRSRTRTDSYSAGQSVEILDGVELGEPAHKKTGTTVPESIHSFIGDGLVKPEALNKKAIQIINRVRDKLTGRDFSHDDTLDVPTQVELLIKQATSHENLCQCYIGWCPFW
mTOR kinase (purified recombinant mTOR(1360-2549)+GBL), sequence (Q9BVC4 whole entry partner): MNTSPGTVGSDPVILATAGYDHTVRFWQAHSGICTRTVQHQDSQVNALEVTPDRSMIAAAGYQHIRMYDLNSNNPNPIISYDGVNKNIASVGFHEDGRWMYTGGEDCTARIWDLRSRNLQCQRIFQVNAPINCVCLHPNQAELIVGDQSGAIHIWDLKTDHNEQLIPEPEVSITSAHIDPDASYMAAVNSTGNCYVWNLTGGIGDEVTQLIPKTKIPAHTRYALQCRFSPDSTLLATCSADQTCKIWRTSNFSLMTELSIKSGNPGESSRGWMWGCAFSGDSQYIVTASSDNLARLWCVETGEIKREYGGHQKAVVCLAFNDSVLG

In the assay the target is mTOR kinase (purified recombinant mTOR(1360-2549)+GBL) (Homo sapiens, UniProt P42345). The assay can be described thus: In vitro mTOR kinase assay (TR-FRET). It counts as biochemical. As to conditions: mTOR kinase assay of Example 496; read-out: Ki. The text has this:
a. In vitro mTOR Kinase Assay
The reaction is stopped by an addition of a Terbium-labeled phospho-specific antibody, e.g., Tb-labeled anti-p4E-BP1 T37/T46, (Invitrogen, product #PR8835A), EDTA, and TR-FRET buffer solution (Invitrogen, Product #PR3756B). Product formation is detected by way of time-resolved fluorescence resonance energy transfer (TR-FRET), which occurs when the phosphorylated substrate and labeled antibody are in close proximity due to phospho-specific binding. Enzymatic activity is measured as an increase in TR-FRET signal using a Perkin Elmer Envision plate reader.
Compound activity is tested in 10 point dose curves starting at the highest final concentration of 10 uM. They are serially diluted in 100% DMSO prior to further dilution with assay buffer. […] 8 μL of solution containing 2 nM Tb-anti-p4E-BP1 antibody & 10 mM EDTA diluted TR-FRET buffer is then added and incubated for 30 minutes to stop the reaction. The plate is scanned with the Envision plate reader. Ki values are calculated in Assay Explorer using the Morrison ATP-competitive tight binding equation for Ki apparent determination.
For the compound `CCNC(=O)Nc1ccc(-c2nc3c(c(N4CCOCC4)n2)CN(Cc2cccc(O)c2)C3)cc1` [drawing 624], the pKi is 8.05.
For `CCNC(=O)Nc1ccc(-c2nc3c(c(N4CCCOCC4)n2)CN(C(=O)OCc2ccccc2)C3)cc1` [drawing 625], the pKi is 8.70.
On to `O=C(Nc1ccc(-c2nc3c(c(N4CCOCC4)n2)CN(c2ncccn2)C3)cc1)NC1CCCC1` [drawing 626], for which the pKi was 7.39.
As for `c1cnc(N2CCc3c(nc(-c4ccc5[nH]ncc5c4)nc3N3CCOCC3)C2)nc1` [drawing 628], the figure is 6.20; as for `CCNC(=O)Nc1ccc(-c2nc3c(c(N4CCOCC4)n2)CN(C(=O)Cc2ccccc2)CC3)cc1` [drawing 633], 7.28.
